The values that follow come from US20240352073A1, “BICYCLIC PEPTIDE INHIBITORS OF INTERLEUKIN-23 RECEPTOR” (Janssen Biotech, Inc., priority 2021, published 2024).

Data set [1] addresses T1, peripheral blood mononuclear cells (PBMCs) stimulated with IL-23 (Homo sapiens, UniProt Q5VWK5).
T1 sequence (Q5VWK5 24-629): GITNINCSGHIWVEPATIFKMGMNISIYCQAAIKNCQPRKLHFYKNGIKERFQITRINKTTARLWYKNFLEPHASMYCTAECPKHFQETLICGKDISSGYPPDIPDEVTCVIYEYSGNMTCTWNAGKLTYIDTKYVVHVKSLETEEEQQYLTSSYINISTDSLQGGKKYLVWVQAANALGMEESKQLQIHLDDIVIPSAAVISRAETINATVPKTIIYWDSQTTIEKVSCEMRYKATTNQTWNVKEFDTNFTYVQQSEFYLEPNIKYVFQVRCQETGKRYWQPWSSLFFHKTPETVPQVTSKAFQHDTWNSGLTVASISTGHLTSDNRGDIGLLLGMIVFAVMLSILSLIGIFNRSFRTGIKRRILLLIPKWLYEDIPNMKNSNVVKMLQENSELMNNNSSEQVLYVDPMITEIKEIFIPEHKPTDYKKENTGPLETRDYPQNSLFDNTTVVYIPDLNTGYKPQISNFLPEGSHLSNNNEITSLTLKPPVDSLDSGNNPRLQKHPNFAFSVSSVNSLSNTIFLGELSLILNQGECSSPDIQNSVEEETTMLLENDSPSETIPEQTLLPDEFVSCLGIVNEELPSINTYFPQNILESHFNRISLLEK
Nature of the data set: PBMC pSTAT3 assay. The conditions noted are these: PBMCs from healthy donors; IL-23 5 ng/mL, 30 minutes; phosphorylated STAT3 in lysates. In kind it is cell-based. As for the experimental part:
Cryopreserved peripheral blood mononuclear cells (PBMCs) from healthy donors were thawed and washed twice in ImmunoCult-XF T cell expansion medium (XF-TCEM) supplemented with CTL anti-aggregate wash. The cells were counted, resuspended at 2×10^5 cells per mL XF-TCEM supplemented with penicillin/streptomycin and 100 ng/mL […] (BioLegend, 579404), and cultured in tissue culture flasks coated with anti-CD3 (eBioscience, 16-0037-85 or BD Pharmingen, 555329) at 37° C. in 5% C02. On day 4 of culture, PBMCs were collected, washed twice in RPMI-1640 supplemented with 0.1% BSA (RPMI-BSA), and incubated in RPMI-BSA in upright tissue culture flasks for 4 hours at 37° C. in 5% C02. Following this ‘starvation,’ a total of 6×10^4 cells in 30 μL RPMI-BSA was transferred into each well of a 384-well plate pre-spotted with peptide or DMSO. The cells were incubated for 30 minutes prior to the addition of IL-23 at a final concentration of 5 ng/mL. The cells were stimulated with cytokine for 30 minutes at 37° C. in 5% C02, transferred onto ice for 10 minutes, and lysed. Cell lysates were stored at −80° C. until phosphorylated STAT3 was measured using the phospho-STAT panel kit (Meso Scale Discovery, K15202D). The results produced with PBMCs are provide in Table 5 below for several from Examples along with data from the IL23R Reporter Assays utilizing HEK293 cells described above. […]

A further data set addresses T2, IL-23R (Homo sapiens, UniProt Q5VWK5).
T2 construct: host or cells: HEK293
T2 sequence (Q5VWK5 24-629): T1 sequence (Q5VWK5 24-629)
Nature of the data set: IL-23R reporter assay (HEK293, STAT-inducible luciferase). It is filed as cell-based. The settings on record: Table 4; HEK293 cells with IL-23R, IL-12Rβ1 and STAT-inducible luciferase reporter, stimulated with IL-23. On the procedure: Example 4. IL-23R Reporter Assay
Compounds were serially diluted in 100% (v/v) DMSO) and plated using an Echo acoustic dispenser (Labcyte) into 1536-well non-treated black assay plates (Corning #9146). […] After 5 h at 37° C., 5% CO2, 95% relative humidity, cells were placed at 20° C. and treated with BioGlo reagent (Promega) according to the manufacturer's instructions. Luminescence was measured on a Pherastar FSX (BMG LabTech). […] Where multiple measurements have been made the average is shown with the number of replicates indicated in parenthesis following the IC50 values.

The conditions of data set [2]: the molecule shown is the open-chain precursor, 20-membered ring.

Where two headings read alike, the source gives them in different places. Where a SMILES comes first, the peptide text is derived from it. Bridges are numbered along the chain shown (N, C = ends). [ ]: non-standard residue; d: D form. The star is where a group is joined. Me3N+(CH2)2O(CH2)2O(CH2)2CO = C[N+](C)(C)CCOCCOCCC(=O)*; Trp(7-Me) = Cc1cccc2c(C[C@H](N)C(=O)O)c[nH]c12; 2Nal = N[C@@H](Cc1ccc2ccccc2c1)C(=O)O; AEF = NCCOc1ccc(C[C@H](N)C(=O)O)cc1; 3Pal = N[C@@H](Cc1cccnc1)C(=O)O; Aad = N[C@@H](CCCC(=O)O)C(=O)O; Lys(Me) = CNCCCC[C@H](N)C(=O)O; Pen = CC(C)(S)[C@H](N)C(=O)O; Thp = NC1(C(=O)O)CCOCC1; X1 = C[N+](C)(C)CCCCC*; Sar = CNCC(=O)O A value given as a limit tells only on which side of the number the result lay.

As for `CC(=O)N[C@H](CCCCN)C(=O)N[C@@H]1C(=O)N[C@@H](CCC(N)=O)C(=O)N[C@@H]([C@@H](C)O)C(=O)N[C@@H](Cc2c[nH]c3ccccc23)C(=O)N[C@@H](CCC(N)=O)C(=O)N[C@H](C(=O)N[C@@H](Cc2ccc(OCCNC(C)=C3C(=O)CC(C)(C)CC3=O)cc2)C(=O)N[C@@H](Cc2ccc3ccccc3c2)C(=O)NC2(C(=O)N[C@@H](CCC(=O)O)C(=O)N[C@@H](CC(N)=O)C(=O)NCCC(N)=O)CCOCC2)C(C)(C)SSC1(C)C`, the ring closure, yield after HPLC (from Ac-dLys-Pen-Gln-Thr-Trp-Gln-Pen-AEF(Dde)-2Nal-THP-Glu-Asn-bAla-NH2?, disulfide bond, 20-membered ring, I2/AcOH, H2O/MeCN 1:1, 0.5 mM) was determined as 48%. Where the note is “amide bond, 29-membered ring, PyBOP/DIEA, DMF, 5.0 mM”, “6Ahx(2)-Abu(1)-N-T-W-Q-C(1)-AEF-2Nal-THP-E(2)-N-3Pya-Sar-CONH2” displayed a ring closure, yield after HPLC of 5%. “7Ahp(2)-Pen(3)-N-T-7MeW-K(Ac)-Pen(3)-AEF-2Nal-THP-E(2)-N-3Pya-Sar-CONH2” showed a ring closure, yield after HPLC (amide bond, 30-membered ring, PyBOP/DIEA, DMF, 5.0 mM) of 13%. The IC50 is the concentration at which inhibition is half-maximal. High values mean lower potency, low ones higher potency. In data set [1], `CC(=O)N(C)CCCC[C@@H]1NC(=O)[C@H](Cc2c[nH]c3c(C)cccc23)NC(=O)[C@H]([C@@H](C)O)NC(=O)[C@H](CC(=O)N(C)C)NC(=O)[C@H]2NC(=O)[C@H](NC(=O)CCOCCOCC[N+](C)(C)C)CCCCNC(=O)CCC[C@@H](C(=O)N[C@@H](CC(N)=O)C(=O)N[C@@H](Cc3cccnc3)C(=O)N(C)CC(=O)N(C)C)NC(=O)C3(CCOCC3)NC(=O)[C@H](Cc3ccc4ccccc4c3)NC(=O)[C@H](Cc3ccc(OCCCCC[N+](C)(C)C)cc3)NC(=O)[C@@H](NC1=O)C(C)(C)SSC2(C)C` [Compd 319] ({Me3N+(CH2)2O(CH2)2O(CH2)2CO}-[dK][Pen]D(NMe2)T[Trp(7-Me)][Lys(Me)](Ac)[Pen]Y(X1)[2Nal][Thp][Aad]N[3Pal][Sar]-NMe2; lactam 1-11; disulfide 2-7) gave an IC50 of 7.9 pM. This lies in the picomolar range. In the case of `CC(=O)NCCCC[C@@H]1NC(=O)[C@H](Cc2c[nH]c3ccccc23)NC(=O)[C@H]([C@@H](C)O)NC(=O)[C@H]2CCC(=O)NCCOc3ccc(cc3)C[C@@H](C(=O)N[C@@H](Cc3ccc4ccccc4c3)C(=O)NC3(C(=O)N[C@@H](CCCCNC(C)=O)C(=O)N[C@@H](CO)C(=O)N[C@@H](Cc4cccnc4)C(=O)N(C)CC(N)=O)CCOCC3)NC(=O)[C@@H](NC1=O)C(C)(C)SSC(C)(C)[C@H](NC(C)=O)C(=O)N2` [Example 4, Ac-[Pen]-E-T-W-[Lys(Ac)]-[Pen]-[Phe(4-(2-aminoethoxy))]-[2Nal]-[THP]-[Lys(Ac)]-S-[3Pal]-[Sarc]-NH2] (Ac-[Pen][dE]TWK(Ac)[Pen][AEF][2Nal][Thp]K(Ac)S[3Pal][Sar]-NH2; disulfide 1-6; lactam 2-7), the IC50 on IL-23R amounted to 330 nM. On IL-23R, `CC(=O)NCCCC[C@@H]1NC(=O)[C@H](Cc2c[nH]c3c(C)cccc23)NC(=O)[C@H]([C@@H](C)O)NC(=O)[C@H](CC(N)=O)NC(=O)[C@H]2NC(=O)CCCCCCNC(=O)CC[C@@H](C(=O)N[C@@H](CC(N)=O)C(=O)N(C)[C@H](Cc3ccc(O)cc3)C(N)=O)NC(=O)C3(CCOCC3)NC(=O)[C@H](Cc3ccc4ccccc4c3)NC(=O)[C@H](Cc3ccc(OCCN)cc3)NC(=O)[C@@H](NC1=O)C(C)(C)SSC2(C)C` [Example 25, [7AminoHeptanoicAcid]-[Pen]-N-T-[W(7-Me)]-[Lys(Ac)]-[Pen]-[Phe(4-(2-aminoethoxy))]-[2Nal]-[THP]-E-N-[(D)NMeTyr]-NH2] came in with an IC50 of 830 nM. The molecule `CC(=O)NCCCC[C@@H]1NC(=O)[C@H](Cc2c[nH]c3c(C)cccc23)NC(=O)[C@H]([C@@H](C)O)NC(=O)[C@H](CC(N)=O)NC(=O)[C@@H](NC(=O)CCCCCCN)C(C)(C)SSC(C)(C)[C@@H](C(=O)N[C@H]2Cc3ccc(cc3)OCCNC(=O)CC[C@@H](C(=O)N[C@@H](CC(N)=O)C(=O)N[C@@H](Cc3cccnc3)C(=O)N(C)CC(N)=O)NC(=O)C3(CCOCC3)NC(=O)[C@H](Cc3ccc4ccccc4c3)NC2=O)NC1=O` [Example 137, [7AminoHeptanoicAcid]-[Pen]-N-T-[W(7-Me)]-[Lys(Ac)]-[Pen]-[Phe(4-(2-aminoethoxy))]-[2Nal]-[THP]-E-N-[3Pal]-[Sarc]-NH2] showed an IC50 at IL-23R of 430 nM. As for `CC(=O)NCCCC[C@@H]1NC(=O)[C@H](Cc2c[nH]c3c(C)cccc23)NC(=O)[C@H]([C@@H](C)O)NC(=O)[C@H](CC(N)=O)NC(=O)[C@@H](NC(=O)CCCCCCN)C(C)(C)SSC(C)(C)[C@@H](C(=O)N[C@H]2Cc3ccc(cc3)OCCNC(=O)CC[C@@H](C(=O)N[C@@H](CC(N)=O)C(=O)NC3(C(N)=O)CCOCC3)NC(=O)C3(CCOCC3)NC(=O)[C@H](Cc3ccc4ccccc4c3)NC2=O)NC1=O` [Example 139, [7AminoHeptanoic Acid]-[Pen]-N-T-[W(7-Me)]-[Lys(Ac)]-[Pen]-[Phe(4-(2-aminoethoxy))]-[2Nal]-[THP]-E-N-[THP]-NH2], the IC50 against IL-23R is more than 16600 nM.

“Ac-O2R-Pen-Gln-Thr-Trp-Gln-Pen-Phe[4-(2-aminoethoxy)]-2Nal-THP-O2R-Asn-bAla-NH2”: the ring closure, yield after HPLC (the molecule shown is the open-chain precursor, disulfide bond, 20-membered ring, I2/AcOH, then Boc2O/DIEA, H2O/MeCN, 0.55 mM, 2 steps) was 40%. As for “Ac-Pen-Glu-Thr-Trp_7Me-Lys(Ac)-Pen-Phe_4_2ae-2Nal-THP-Lys(Ac)-Asn-His-Sar-NH2”, the ring closure, yield after HPLC (the molecule shown is the open-chain precursor, disulfide bond, 20-membered ring, I2/MeOH, MeCN/H2O 20:80, 1.0 mM, with chain assembly) stood at 30%. As to “H-6Ahx-Abu(4-Cl)-Asn-Thr-Trp-Gln-Cys-AEF-2Nal-THP-Glu-Asn-3Pya-Sar-NH2?”, the ring closure, isolated yield in data set [2] (thioether bond, NaI/EDTA/Na2CO3, DMF, 1.07 mM) turned out to be 21%.

The molecule “H-7Ahp-Pen-Asn-Thr-7MeTrp-Lys(Ac)-Pen-AEF-2Nal-THP-Glu-Asn-3Pya-Sar-NH2” gave a ring closure, isolated yield in data set [2] (disulfide bond, I2/MeOH, MeCN/H2O 30:70, 1.0 mM) of 30.3%. Turning to “H-PEG2-Pen-Asn-Thr-7MeTrp-Lys(Ac)-Pen-AEF(Dde)-2Nal-THP-hGlu-Asn-3Pya-Sar-NH2”, the ring closure, isolated yield in data set [2] (disulfide bond, I2/MeOH, H2O/MeCN 1:1, 0.46 mM) came out at 32%. For the setting “amide bond, 24-membered ring, HATU/DIEA, DMF, 0.24 mM, 2 steps”, “McCO-Glu-Pen-N-T-7MeW-K(Ac)-Pen-AEF-2Nal-THP—K(Ac)—N-3Pva-Sar-CONH2” had a ring closure, yield after HPLC of 10%. Turning to “McCO-k(2)-Pen(3)-O-T-W-Q-Pen(3)-AEF-2Nal-THP-E(2)-N-bAla-CONH2”, the ring closure, yield after HPLC (amide bond, 29-membered ring, HATU/DIEA, then N2H4, DMF, […], 2 steps) turned out to be 49%. “PEG2(2)-Pen(3)-N-T-7MeW-K(Ac)-Pen(3)-AEF-2Nal-THP-hE(2)-N-3Pya-Sar-CONH2” registered a ring closure, yield after HPLC (amide bond, 32-membered ring, HATU/DIEA, then N2H4, DMF, 4.8 mM, 2 steps) of 14%. Under “crosslinker bond, 39-membered ring, PEG4DA-NHS/DIEA, DMF, 1.0 mM”, “ac-Pen(1:3)-Dap(2:3)-T-Trp 7Me-Lvs Ac-Pen(1:3)-Phe 4 2ae(3:3)-Nal-THP-Lys Ac—N—H-Sar-am-PEG4DA(x,2:1,3:2)” returned a ring closure, yield after HPLC of 50%. The molecule “ac-Pen(1:3)-E(2:3)-T-Trp 7Me-Lys Ac-Pen(1:3)-Phe 4 2ae(2:3)-Nal-THP-Lys Ac—N—H-Sar-am” came in with a ring closure, yield after HPLC (amide bond, 24-membered ring, PyBOP/DIEA, DMF, 1.0 mM) of 50%.
